Test results: US6667387B1, “HCV core peptides” (priority 1992, dated 2003)
Ends that are not written are not given here. * marks the point of attachment. Biotin = O=C1N[C@H]2[C@H](CS[C@H]2CCCCC(=O)*)N1

Key:
[1] = test system: antibodies in sera from HCV-seropositive donors; experiment: ELISA with HCV antibody-positive sera (biotinylated peptides on streptavidin- or avidin-coated plates, unbiotinylated peptides coated directly); type: binding, human; conditions: for PEPTIDE ELISA (O.D.): Table 12, biotinylated 20-mers
How it was run: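 Peptides coated either directly at 2–5 or 3 μg/ml in carbonate buffer pH 9.6, or biotinylated at 1 μg/ml on streptavidin-coated wells (3 μg/ml). Plates casein-blocked, then human sera (1:100 or 1:20) incubated 1 h at 37° C. Bound antibody detected with HRP anti-human Ig/TMB, read as OD450.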

[2] = ELISA with seronegative / negative control sera (specificity); type: binding, human
How it was run: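 Specificity readout is OD at 450 nm (HRP goat anti-human Ig, TMB/H2O2, sulfuric acid stop), with ≥0.250 counted positive. Seronegative donor sera (typically 1:100, 1 h, 37° C) were applied to casein-blocked wells coated with peptide directly or via streptavidin capture of biotinylated peptide.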

[3] = Table 8, serum 8243 (HCV), Avidin
[4] = Table 8, serum 8247 (HCV), Avidin
[5] = Table 8, serum 8248 (HCV), Avidin
[6] = Table 8, serum 8269 (HCV), Avidin
[7] = Table 8, serum 8273 (HCV), Avidin
[8] = Table 8, serum 8278 (HCV), Avidin
[9] = Table 8, serum 8285 (HCV), Avidin
[10] = Table 8, serum 8290 (HCV), Avidin
[11] = Table 8, serum 8291 (HCV), Avidin
[12] = Table 8, serum 1782 (blood donor), Avidin
[13] = Table 8, serum 1784 (blood donor), Avidin
[14] = Table 8, serum 1785 (blood donor), Avidin
[15] = Table 8, serum 1794 (blood donor), Avidin

IIPDREVLYREFDEMEECSQ
optical density (450 nm) ([1]; Table 4F, serum 8315, 20-fold dilution): 2.672
optical density (450 nm) ([1]; Table 4F, serum 8316, 20-fold dilution): 0.367
optical density (450 nm) ([1]; Table 4F, serum 8317, 20-fold dilution): 1.634
optical density (450 nm) ([1]; Table 4F, serum 8318, 20-fold dilution): 2.431
optical density (450 nm) ([1]; Table 4F, serum 8320, 20-fold dilution): 0.896
optical density (450 nm) ([1]; Table 4F, serum 8321, 20-fold dilution): 0.457
optical density (450 nm) ([1]; Table 4F, serum 8326, 20-fold dilution): 2.540
optical density (450 nm) ([1]; Table 5, sample 8242 (positive), peptide concentration 0.01 micrograms per milliliter, listed as HCV peptide IX): 0.215
optical density (450 nm) ([1]; Table 5, sample 8242 (positive), peptide concentration 0.03 micrograms per milliliter, listed as HCV peptide IX): 0.496
optical density (450 nm) ([1]; Table 5, sample 8242 (positive), peptide concentration 0.1 micrograms per milliliter, listed as HCV peptide IX): 0.911
optical density (450 nm) ([1]; Table 5, sample 8242 (positive), peptide concentration 0.3 micrograms per milliliter, listed as HCV peptide IX): 0.795
optical density (450 nm) ([1]; Table 5, sample 8242 (positive), peptide concentration 1.0 micrograms per milliliter, listed as HCV peptide IX): 0.777
optical density (450 nm) ([1]; Table 5, sample 8242 (positive), peptide concentration 3.0 micrograms per milliliter, listed as HCV peptide IX): 0.791
optical density (450 nm) ([1]; Table 5, sample 8243 (positive), peptide concentration 0.01 micrograms per milliliter, listed as HCV peptide IX): 0.639
optical density (450 nm) ([1]; Table 5, sample 8243 (positive), peptide concentration 0.03 micrograms per milliliter, listed as HCV peptide IX): 1.421
optical density (450 nm) ([1]; Table 5, sample 8243 (positive), peptide concentration 0.1 micrograms per milliliter, listed as HCV peptide IX): 1.834
optical density (450 nm) ([1]; Table 5, sample 8243 (positive), peptide concentration 0.3 micrograms per milliliter, listed as HCV peptide IX): 1.892
optical density (450 nm) ([1]; Table 5, sample 8243 (positive), peptide concentration 1.0 micrograms per milliliter, listed as HCV peptide IX): 1.953
optical density (450 nm) ([1]; Table 5, sample 8243 (positive), peptide concentration 3.0 micrograms per milliliter, listed as HCV peptide IX): 1.959
optical density (450 nm) ([1]; Table 5, sample 8320 (positive), peptide concentration 0.01 micrograms per milliliter, listed as HCV peptide IX): 0.461
optical density (450 nm) ([1]; Table 5, sample 8320 (positive), peptide concentration 0.03 micrograms per milliliter, listed as HCV peptide IX): 1.007
optical density (450 nm) ([1]; Table 5, sample 8320 (positive), peptide concentration 0.1 micrograms per milliliter, listed as HCV peptide IX): 1.244
optical density (450 nm) ([1]; Table 5, sample 8320 (positive), peptide concentration 0.3 micrograms per milliliter, listed as HCV peptide IX): 1.798
optical density (450 nm) ([1]; Table 5, sample 8320 (positive), peptide concentration 1.0 micrograms per milliliter, listed as HCV peptide IX): 0.802
optical density (450 nm) ([1]; Table 5, sample 8320 (positive), peptide concentration 3.0 micrograms per milliliter, listed as HCV peptide IX): 1.779
optical density (450 nm) ([1]; Table 5, sample 8326 (positive), peptide concentration 0.01 micrograms per milliliter, listed as HCV peptide IX): 1.812
optical density (450 nm) ([1]; Table 5, sample 8326 (positive), peptide concentration 0.03 micrograms per milliliter, listed as HCV peptide IX): 2.193
optical density (450 nm) ([1]; Table 5, sample 8326 (positive), peptide concentration 0.1 micrograms per milliliter, listed as HCV peptide IX): 2.284
optical density (450 nm) ([1]; Table 5, sample 8326 (positive), peptide concentration 0.3 micrograms per milliliter, listed as HCV peptide IX): 2.271
optical density (450 nm) ([1]; Table 5, sample 8326 (positive), peptide concentration 1.0 micrograms per milliliter, listed as HCV peptide IX): 2.271
optical density (450 nm) ([1]; Table 5, sample 8326 (positive), peptide concentration 3.0 micrograms per milliliter, listed as HCV peptide IX): 2.284
optical density (450 nm) [1, 3]: 1.213
optical density (450 nm) [1, 4]: 0.756
optical density (450 nm) [1, 5]: 0.047
optical density (450 nm) [1, 6]: 0.051
optical density (450 nm) [1, 7]: 0.053
optical density (450 nm) [1, 8]: 0.074
optical density (450 nm) [1, 9]: 0.270
optical density (450 nm) [1, 10]: 0.048
optical density (450 nm) [1, 11]: 0.052
PEPTIDE ELISA (O.D.) ([1]; serum 0843): 2.206
PEPTIDE ELISA (O.D.) ([1]; serum 8240): 0.142
PEPTIDE ELISA (O.D.) ([1]; serum 8241): 0.421
PEPTIDE ELISA (O.D.) ([1]; serum 8242): 2.114
PEPTIDE ELISA (O.D.) ([1]; serum 8332): 0.392
PEPTIDE ELISA (O.D.) ([1]; serum 8339): 2.497
PEPTIDE ELISA (O.D.) ([1]; serum 8350): 1.779
PEPTIDE ELISA (O.D.) ([1]; serum 8377): 2.360
PEPTIDE ELISA (O.D.) ([1]; serum 8378): 1.859
PEPTIDE ELISA (O.D.) ([1]; serum 8388): 2.300
antibody binding to the 20-mers ([1]; serum 8241): very strong
optical density (450 nm) ([2]; Table 4F, negative serum): 0.005
optical density (450 nm) ([2]; Table 5, sample 1747 (negative), peptide concentration 0.01 micrograms per milliliter, listed as HCV peptide IX): 0.043
optical density (450 nm) ([2]; Table 5, sample 1747 (negative), peptide concentration 0.03 micrograms per milliliter, listed as HCV peptide IX): 0.044
optical density (450 nm) ([2]; Table 5, sample 1747 (negative), peptide concentration 0.1 micrograms per milliliter, listed as HCV peptide IX): 0.042
optical density (450 nm) ([2]; Table 5, sample 1747 (negative), peptide concentration 0.3 micrograms per milliliter, listed as HCV peptide IX): 0.046
optical density (450 nm) ([2]; Table 5, sample 1747 (negative), peptide concentration 1.0 micrograms per milliliter, listed as HCV peptide IX): 0.049
optical density (450 nm) ([2]; Table 5, sample 1747 (negative), peptide concentration 3.0 micrograms per milliliter, listed as HCV peptide IX): 0.051
optical density (450 nm) ([2]; Table 5, sample 1781 (negative), peptide concentration 0.01 micrograms per milliliter, listed as HCV peptide IX): 0.049
optical density (450 nm) ([2]; Table 5, sample 1781 (negative), peptide concentration 0.03 micrograms per milliliter, listed as HCV peptide IX): 0.048
optical density (450 nm) ([2]; Table 5, sample 1781 (negative), peptide concentration 0.1 micrograms per milliliter, listed as HCV peptide IX): 0.047
optical density (450 nm) ([2]; Table 5, sample 1781 (negative), peptide concentration 0.3 micrograms per milliliter): 0.051
optical density (450 nm) ([2]; Table 5, sample 1781 (negative), peptide concentration 1.0 micrograms per milliliter, listed as HCV peptide IX): 0.051
optical density (450 nm) ([2]; Table 5, sample 1781 (negative), peptide concentration 3.0 micrograms per milliliter): 0.053
optical density (450 nm) [2, 12]: 0.062
optical density (450 nm) [2, 13]: 0.050
optical density (450 nm) [2, 14]: 0.050
optical density (450 nm) [2, 15]: 0.098

Bio-Gly-Gly-Tyr-Asn-Lys-Arg-Lys-Arg-Ile-His-Ile-Gly-Pro-Gly-Arg-Ala-Phe-Tyr-Thr-Thr-Lys-Asn-Ile-Ile-Gly-NH2 (Biotin-GGYNKRKRIHIGPGRAFYTTKNIIG-NH2) [V3-mn Bio]
optical density (450 nm) [1, 3]: 0.114
optical density (450 nm) [1, 4]: 0.052
optical density (450 nm) [1, 5]: 0.048
optical density (450 nm) [1, 6]: 0.056
optical density (450 nm) [1, 7]: 0.056
optical density (450 nm) [1, 8]: 0.053
optical density (450 nm) [1, 9]: 0.143
optical density (450 nm) [1, 10]: 0.050
optical density (450 nm) [1, 11]: 0.053
optical density (450 nm) ([2]; Table 2, negative control): 0.069
optical density (450 nm) ([2]; Table 3, Control, peptide bound to avidin): 0.063
optical density (450 nm) ([2]; Table 3, Control, peptide bound to streptavidin): 0.050
optical density (450 nm) [2, 12]: 0.059
optical density (450 nm) [2, 13]: 0.046
optical density (450 nm) [2, 14]: 0.048
optical density (450 nm) [2, 15]: 0.091
